{"source": "patent US20230074545A1", "about": "“TREATMENT OF CANCER WITH CDK12/13 INHIBITORS” (Kinnate Biopharma Inc., priority 2019, published 2023)", "key": {"OVCAR-3 tumors": {"test_system": "OVCAR-3 tumors", "assay": "OVCAR-3 mouse xenograft model of ovarian cancer", "format": "in vivo, NOD SCID female mice", "text": "To test the efficacy of the compounds in vivo, studies were done in mouse xenografts. For all studies, general procedures for animal care and housing were done in accordance with the standard, Commission on Life Sciences, National Research Council, Standard operating procedures (SOPs) of Pharmaron, Inc (Beijing, China). The mice were kept in laminar flow rooms at constant temperature and humidity with 3-5 mice in each cage with bedding changed once weekly. Animals were housed in polycarbonate cage which is in the size of 300×180×150 mm^3 and in an environmentally monitored, well-ventilated room maintained at a temperature of (22±3° C.) and a relative humidity of 40%-70% on a 12:12 light:dark cycle with full spectrum lighting. Each animal was assigned an identification number; the following identification method will be applied. Cage cards were labeled with such information as study number, group, sex, dose, animal number, initiation date, study director and telephone number. Animals were identified by ear coding. Animals had free access to irradiation sterilized dry granule food during the entire study period except for time periods specified by the protocol.\nFor the OVCAR-3 study, NOD SCID female mice bearing the OVCAR-3 tumors were randomized into 5 groups (n=9 mice per group) 17 day post tumor implantation with an average tumor volume of 150 mm^3. Each group received either vehicle (3% DMSO, 97.0% (20% HP-β-CD in water) or 5.0, 10, 20 and 25.0 mg/kg of compound 4 biweekly (Monday, Thursday), a total of 4 doses were intravenously administered through the course of 14 day efficacy study. Immediately after every treatment dose, a saline flush of 0.1 mL were also administered. One last dose was intravenously administered on Day 15 for end of study PK plasma and PD tumor collections as indicated in the protocol. Tumor volumes were measured by caliper 2 times a week and body weights of all animals were recorded throughout the study.\nProtocol-required measurements and observations were recorded manually onto excel spread sheets. All statistical tests were conducted, and the level of significance was set at 5% or P<0.05. The group means, standard deviation was calculated for all measurement parameters as study designed. Two-way RM ANOVA followed by Tukeys post hoc comparisons of the means was utilized for this study."}, "RNA polymerase II": {"test_system": "RNA polymerase II", "assay": "Phosphorylation of RNA polymerase II (pS2/S2) in HCC70 xenograft", "format": "in vivo, CB-17 SCID mice", "details": "intravenous; compound 4 20 or 25 mg/kg, compound 5 10 or 25 mg/kg; 0.5, 6 and 24 hours after the dose", "procedure": "The ability of compound 4 and compound 5 to inhibit phosphorylation of RNA polymerase II at the S2 unit was analyzed in a mouse xenograft model of triple-negative breast cancer. CB-17 SCID mice were inoculated with the HCC70 cells as the in vivo model for triple negative breast cancer. Each mouse was inoculated subcutaneously on the right flank with HCC70 tumor cells (5×106) in 0.1 mL of RPMI-1640 Medium and Matrigel mixture (1:1 ratio) for tumor development. The treatment started when the mean tumor size reached approximately 100-150 mm^3. Mice were treated intravenously with vehicle only, 20 mg/kg of compound 4, 25 mg/kg of compound 4, 10 mg/kg of compound 5, or 25 mg/kg of compound 5 for 2 hours. Measurements were taken at 0.5 hours, 6 hours and 24 hours after the dose. The amount of phosphorylated RNA polymerase II and the total amount of RNA polymerase II was analyzed. The values were normalized by taking the ratio of the phosphorylated RNA polymerase II to the total RNA polymerase II (pS2/S2)."}, "BRCA1": {"test_system": "BRCA1", "assay": "DDR gene expression in HCC70 xenograft tumor cells", "format": "in vivo, CB-17 SCID mice", "details": "single intravenous dose 20 or 25 mg/kg; 6 and 24 hours after dose", "procedure": "A triple-negative xenograft model of breast cancer was used in this experiment. CB-17 SCID mice were inoculated with the HCC70 cells as the in vivo model for triple negative breast cancer. Each mouse was inoculated subcutaneously on the right flank with HCC70 tumor cells (5×10^6) in 0.1 mL of RPMI-1640 Medium and Matrigel mixture (1:1 ratio) for tumor development. The treatment started when the mean tumor size reached approximately 100-150 mm^3. Mice were treated with a single dose of either vehicle, 20 mg/kg compound 4, or 25 mg/kg of compound 4 intravenously. 0.5, 6, and 24 hours post dose, tumor cells were collected and analyzed for gene expression."}}, "data": [{"smiles": "C=CC(=O)Nc1ccc(C(=O)N2CC[C@@H](Nc3ncc(C#N)cn3)C2)cc1", "note": "[Compound 4, (R)-N-(4-(3-((5-cyanopyrimidin-2-yl)amino)pyrrolidine-1-carbonyl)phenyl)acrylamide]", "values": [{"measurement": "T/C", "setting": "OVCAR-3 tumors; 5.0 mg/kg intravenously biweekly for 14 days, compared to vehicle control", "result": 36, "unit": "%"}, {"measurement": "T/C", "setting": "OVCAR-3 tumors; 10 mg/kg intravenously biweekly for 14 days, compared to vehicle control", "result": 13, "unit": "%"}, {"measurement": "T/C", "setting": "OVCAR-3 tumors; 20 mg/kg intravenously biweekly for 14 days", "result": "−7", "unit": "%"}, {"measurement": "T/C", "setting": "OVCAR-3 tumors; 25 mg/kg intravenously biweekly for 14 days", "result": "−9", "unit": "%"}, {"measurement": "pS2/S2 compared to treatment with the vehicle alone", "setting": "RNA polymerase II", "result": "reduced the pS2/S2 at all time points"}, {"measurement": "BRCA1 expression in tumor cells", "setting": "BRCA1", "result": "reduced"}]}]}
